According to US20160324149A1, “ADJUVANTS FOR PLANT GROWTH REGULATORS” (VERDESIAN LIFE SCINCES, LLC, priority 2014, published 2016):

Test system: soybean seedlings
Test: Soybean seedling spray test, dry weight one week later
Format: in vivo
Conditions: for Mean Plant Dry Wt. / Total Dry Wt.: sprayed at 20 gallons per acre, harvested one week later
Method: In this test, soybean seedlings at true leaf emergence were sprayed with a series of aqueous test solutions at a rate of 20 gallons per acre. In those solutions including AVAIL®, use was made of AVAIL® for liquid phosphate fertilizers. The beans were then harvested one week later and were counted, dried, and weighed, and average weight per plant was determined.

## C=C1C[C@]23C[C@@]1(O)CC[C@H]2[C@@]12C=C[C@H](O)[C@@](C)(C(=O)O1)[C@H]2[C@@H]3C(=O)O [gibberellic acid]
50-500 ppm
  Mean plant dry weight as gibberellic acid concentration increased: the mean plant dry weight also increased
50 ppm gibberellic acid
  Mean Plant Dry Wt.: 1.594 g
  Total Dry Wt.: 17.53 g
100 ppm gibberellic acid
  Mean Plant Dry Wt.: 1.808 g
  Total Dry Wt.: 18.08 g
250 ppm gibberellic acid
  Mean Plant Dry Wt.: 1.718 g
  Total Dry Wt.: 20.61 g
500 ppm gibberellic acid
  Mean Plant Dry Wt.: 2.280 g
  Total Dry Wt.: 22.80 g
